Data set [1] relates to SW-620. Briefly: Reversal of resistance to paclitaxel-induced cytotoxicity in human SW-620 cells assessed as reduction in paclitaxel IC50 at 1 uM preincubated for 4 hrs followed by paclitaxel addition and measured after 72 hrs by MTT assay (reference value: 7.69 +/- 2.78 nM). In kind it is functional, cell-based. A general note: Tetrazolium assays rely on reduction of a dye to a coloured formazan, in cell work by metabolically active cells.

In the next data set the test system is Mus musculus. Kind of data set: Toxicity in BALB/c mouse xenografted with human SW-620/AD300 cells assessed as mortality at 30 mg/kg/day, ig administered 21 days in presence of paclitaxel. In kind it is organism-based. To be noted: in vivo, po, 504 h, time 21 day. In general terms: Xenograft models place foreign cells or tissue in a host animal.
Data set [2] deals with HEK293. Kind of data set: Reversal of resistance to paclitaxel-induced cytotoxicity in human HEK293/ABCB1 cells assessed as reduction in paclitaxel IC50 at 2 uM preincubated for 4 hrs followed by paclitaxel addition and measured after 72 hrs by MTT assay (reference value: 91.40 +/- 23.32 nM). In kind it is functional, cell-based.
The subject of the next data set is KB 3-1. Kind of data set: Reversal of resistance to paclitaxel-induced cytotoxicity in human KB 3-1 cells assessed as reduction in paclitaxel IC50 at 1 uM preincubated for 4 hrs followed by paclitaxel addition and measured after 72 hrs by MTT assay (reference value: 4.54 +/- 1.59 nM). In kind it is functional, cell-based.
Data set [3] has as its system SW-620. Kind of data set: Antitumor activity against human SW-620/AD300 cells xenografted in BALB/c nude mouse assessed as tumor growth inhibition at 30 mg/kg/day, ig administered for 21 days. In kind it is functional. Also noted: scale not given: the % may be the effect or the level left. Conditions: time 21 day.
The subject of data set [4] is HEK293. Kind of data set: Reversal of resistance to paclitaxel-induced cytotoxicity in human HEK293/pcDNA3.1 cells assessed as reversal fold at 1 uM preincubated for 4 hrs followed by paclitaxel addition and measured after 72 hrs by MTT assay. To be noted: time 76 hrs. The class given is functional.
A short description of data set [5]: MRTlast in Sprague-Dawley rat at 10 mg/kg, iv measured up to 24 hrs by LC-MS/MS analysis. To be noted: in vivo. The class given is ADME, organism-based.
The test system of data set [6] is SW-620. Briefly: Antitumor activity against human SW-620/AD300 cells xenografted in BALB/c nude mouse assessed as increase in cells with nuclear pyknosis at 30 mg/kg/day, ig administered for 21 days in presence of paclitaxel by TUNEL staining based fluorescence microscopy. The class given is functional, organism-based. To be noted: time 21.0 day.
Data set [7] has as its system HEK293. Kind of data set: Reversal of resistance to paclitaxel-induced cytotoxicity in human HEK293/ABCB1 cells assessed as reversal fold at 1 uM preincubated for 4 hrs followed by paclitaxel addition and measured after 72 hrs by MTT assay relative to paclitaxel. To be noted: time 76 hrs. The class given is functional.
The subject of data set [8] is SW-620. Kind of data set: Reversal of resistance to paclitaxel-induced cytotoxicity in human SW-620/AD300 cells assessed as reduction in paclitaxel IC50 at 1 uM preincubated for 4 hrs followed by paclitaxel addition and measured after 72 hrs by MTT assay (reference value: 4.23 +/- 0.50 uM). The class given is functional, cell-based.
Data set [9] relates to SW-620. Kind of data set: Reversal of resistance to paclitaxel-induced cytotoxicity in human SW-620/AD300 cells assessed as reversal fold at 2 uM preincubated for 4 hrs followed by paclitaxel addition and measured after 72 hrs by MTT assay relative to paclitaxel. In kind it is functional. Conditions: time 76 hrs.
In data set [10] the test system is SW-620. Briefly: Reversal of resistance to paclitaxel-induced cytotoxicity in human SW-620 cells assessed as reduction in paclitaxel IC50 at 2 uM preincubated for 4 hrs followed by paclitaxel addition and measured after 72 hrs by MTT assay (reference value: 7.69 +/- 2.78 nM). The class given is functional, cell-based.
Data set [11] can be described thus: Volume of distribution at steady state in Sprague-Dawley rat at 10 mg/kg, iv measured up to 24 hrs by LC-MS/MS analysis. The class given is ADME, organism-based. To be noted: in vivo, read-out: Vdss.
The test system of data set [12] is SW-620. Kind of data set: Reversal of resistance to paclitaxel-induced cytotoxicity in human SW-620/AD300 cells assessed as reduction in paclitaxel IC50 at 2 uM preincubated for 4 hrs followed by paclitaxel addition and measured after 72 hrs by MTT assay (reference value: 4.23 +/- 0.50 uM). The class given is functional, cell-based.
Data set [13] has as its system HEK293. Briefly: Reversal of resistance to paclitaxel-induced cytotoxicity in human HEK293/ABCB1 cells assessed as reversal fold at 2 uM preincubated for 4 hrs followed by paclitaxel addition and measured after 72 hrs by MTT assay relative to paclitaxel. The class given is functional. Conditions: time 76 hrs.
The nature of data set [14]: Half life in Sprague-Dawley rat at 10 mg/kg, iv measured up to 24 hrs by LC-MS/MS analysis. The class given is ADME, organism-based. To be noted: in vivo.

Active and inactive are the calls of the source. No cut-off for these calls is given here.

In general, IC50 refers to the midpoint of a concentration-inhibition curve. Usually MRT last stands for the average time that molecules of a dose stay in the body. As usually defined, the half-life is the time in which the quantity being followed falls by half. Consider `Cc1cc(Nc2ccc(C(=O)/C=C/c3ccc4ccccc4c3)cc2)n2nc(SCc3nc4ccccc4[nH]3)nc2n1`, for which the IC50 was determined as 7.19 nM in the data set with SW-620 [1]; 3.68 nM with HEK293 [2]; 4.09 nM in the data set on KB 3-1; 28.1 nM in the data set on SW-620 [8]; 6.98 nM with SW-620 [10]; 5 nM in the data set with SW-620 [12]. The Activity result is reported as “Non-Toxic” in the data set on Mus musculus and 30% in the data set with SW-620 [3]. The “fold change (FC)” value in the data set with HEK293 [4] was 1.14; with HEK293 [7], 9.92; in the data set with SW-620 [9], 846; with HEK293 [13] it was 24.84. Also, the MRT last at 24 h in [5] stood at 5.76 min. Besides, the result with SW-620 [6] was Active. The Vd in data set [11] was 0.114 L/kg. This molecule had a half-life in [14] of 85.8 min.

The record behind these values is ChEMBL document CHEMBL5055665, “Discovery of the Triazolo[1,5-a]Pyrimidine-Based Derivative WS-898 as a Highly Efficacious and Orally Bioavailable ABCB1 Inhibitor Capable of Overcoming Multidrug Resistance” (J Med Chem, 2021).
